Experimental data: ChEMBL document CHEMBL3853314, “G-Protein-Coupled Receptor Kinase 2 (GRK2) Inhibitors: Current Trends and Future Perspectives” (J Med Chem, 2016)
Where a name gives a salt, the structure may show the parent alone. Each block holds one molecule with its values, some of them ahead of it. Peptide text beside a SMILES is read from it.

Assays:
[1] = biological target: Beta-adrenergic receptor kinase 1 (Homo sapiens, UniProt P25098, S670A); assay: Inhibition of human GRK2 S670A mutant assessed as decrease in phosphorylation of light-activated bovine rod outer segments after 5 mins by SDS-PAGE analysis
Sequence of Beta-adrenergic receptor kinase 1 (Homo sapiens, UniProt P25098, S670A) (P25098 whole entry S670A): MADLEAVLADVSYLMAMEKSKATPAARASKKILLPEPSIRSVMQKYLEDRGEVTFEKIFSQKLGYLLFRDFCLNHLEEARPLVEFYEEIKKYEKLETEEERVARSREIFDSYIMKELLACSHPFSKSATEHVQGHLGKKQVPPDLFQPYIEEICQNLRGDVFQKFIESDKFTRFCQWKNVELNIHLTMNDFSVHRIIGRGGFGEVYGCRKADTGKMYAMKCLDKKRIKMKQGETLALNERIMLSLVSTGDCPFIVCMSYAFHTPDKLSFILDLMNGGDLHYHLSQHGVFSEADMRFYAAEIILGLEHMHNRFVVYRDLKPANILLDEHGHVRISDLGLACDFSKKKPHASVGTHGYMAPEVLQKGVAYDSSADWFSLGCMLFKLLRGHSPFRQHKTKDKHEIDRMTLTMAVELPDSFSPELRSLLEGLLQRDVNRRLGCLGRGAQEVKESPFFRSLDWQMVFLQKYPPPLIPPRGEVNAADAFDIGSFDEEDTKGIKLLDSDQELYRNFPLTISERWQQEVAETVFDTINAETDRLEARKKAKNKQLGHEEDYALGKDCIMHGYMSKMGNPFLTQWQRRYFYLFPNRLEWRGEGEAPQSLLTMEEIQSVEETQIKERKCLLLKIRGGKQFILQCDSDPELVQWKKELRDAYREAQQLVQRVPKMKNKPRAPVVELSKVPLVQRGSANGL

[2] = Inhibition of PKA (unknown origin) using LRRASLG as substrate incubated for 30 mins by ADP-Glo assay; parameters: species or system Homo sapiens
Rhodopsin kinase GRK1 [3] = biological target: T1, Rhodopsin kinase GRK1 (Bos taurus, UniProt P28327); assay: Inhibition of bovine GRK1 (1 to 535 residues) assessed as decrease in phosphorylation of tubulin after 5 mins by SDS-PAGE analysis
T1 sequence (P28327 whole entry): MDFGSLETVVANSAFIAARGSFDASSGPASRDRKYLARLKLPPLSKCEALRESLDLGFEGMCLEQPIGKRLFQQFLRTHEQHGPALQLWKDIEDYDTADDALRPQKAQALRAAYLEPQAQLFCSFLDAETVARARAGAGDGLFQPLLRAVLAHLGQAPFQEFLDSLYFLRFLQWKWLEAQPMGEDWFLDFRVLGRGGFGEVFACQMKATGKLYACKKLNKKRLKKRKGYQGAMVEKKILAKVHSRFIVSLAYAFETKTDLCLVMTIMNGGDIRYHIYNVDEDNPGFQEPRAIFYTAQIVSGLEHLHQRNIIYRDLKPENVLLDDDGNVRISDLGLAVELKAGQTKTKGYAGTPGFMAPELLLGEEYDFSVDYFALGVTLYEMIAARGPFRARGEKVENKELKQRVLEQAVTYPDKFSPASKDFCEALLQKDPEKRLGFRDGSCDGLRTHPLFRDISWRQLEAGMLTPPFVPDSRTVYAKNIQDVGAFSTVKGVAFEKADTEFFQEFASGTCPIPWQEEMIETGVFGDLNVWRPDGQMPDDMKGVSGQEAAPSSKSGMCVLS

[4] = biological target: T2, Protein kinase C alpha type (Homo sapiens, UniProt P17252); assay: Inhibition of recombinant full-length human N-terminal GST tagged PKCalpha expressed in Baculovirus infected Sf9 insect cells using KRREILSRRPSYR as substrate incubated for 30 mins by ADP-Glo assay
Rhodopsin kinase GRK1 [5] = biological target: T1, Rhodopsin kinase GRK1; assay: Inhibition of bovine C-terminal truncated GRK1 (535 residues) assessed as decrease in phosphorylation of urea-washed bovine rod outer segments preincubated for 30 mins followed by ATP addition and light exposure measured after 5 to 10 mins by SDS-PAGE analysis
[6] = biological target: T3, cGMP-dependent protein kinase 1 (Homo sapiens, UniProt Q13976); assay: Binding affinity to human recombinant N-terminal GST-tagged PKGalpha expressed in Baculovirus infected insect Sf9 cells using RKRSRAE as substrate in presence of [gamma-32P]ATP
T3 sequence (Q13976 whole entry): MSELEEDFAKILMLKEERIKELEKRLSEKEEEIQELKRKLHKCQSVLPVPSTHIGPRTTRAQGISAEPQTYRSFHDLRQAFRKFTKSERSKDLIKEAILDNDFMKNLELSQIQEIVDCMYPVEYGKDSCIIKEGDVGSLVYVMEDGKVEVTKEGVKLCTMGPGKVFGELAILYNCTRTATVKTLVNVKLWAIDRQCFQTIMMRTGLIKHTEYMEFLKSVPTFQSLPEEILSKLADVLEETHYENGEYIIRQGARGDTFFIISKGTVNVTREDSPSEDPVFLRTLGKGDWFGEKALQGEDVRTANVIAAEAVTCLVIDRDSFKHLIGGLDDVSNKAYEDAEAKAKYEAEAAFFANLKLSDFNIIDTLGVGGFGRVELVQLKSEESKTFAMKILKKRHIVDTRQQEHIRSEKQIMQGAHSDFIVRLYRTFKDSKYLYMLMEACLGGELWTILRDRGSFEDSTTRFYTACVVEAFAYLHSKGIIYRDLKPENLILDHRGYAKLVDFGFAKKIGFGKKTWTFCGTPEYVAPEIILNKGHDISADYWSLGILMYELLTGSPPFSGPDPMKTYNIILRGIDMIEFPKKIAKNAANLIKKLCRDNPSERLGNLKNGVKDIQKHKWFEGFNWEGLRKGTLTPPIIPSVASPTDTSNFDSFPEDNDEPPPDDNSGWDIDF

[7] = biological target: T2, Protein kinase C alpha type; assay: Binding affinity to PKCalpha (unknown origin) using Lys-Arg-Thr-Leu-Arg-Arg as substrate after 8 mins in presence of [gamma-32P]ATP by liquid scintillation spectrometry
[8] = biological target: Protein kinase C beta type (Homo sapiens, UniProt P05771); assay: Binding affinity to PKCbeta2 (unknown origin) using Lys-Arg-Thr-Leu-Arg-Arg as substrate after 8 mins in presence of [gamma-32P]ATP by liquid scintillation spectrometry
Sequence of Protein kinase C beta type (P05771 whole entry): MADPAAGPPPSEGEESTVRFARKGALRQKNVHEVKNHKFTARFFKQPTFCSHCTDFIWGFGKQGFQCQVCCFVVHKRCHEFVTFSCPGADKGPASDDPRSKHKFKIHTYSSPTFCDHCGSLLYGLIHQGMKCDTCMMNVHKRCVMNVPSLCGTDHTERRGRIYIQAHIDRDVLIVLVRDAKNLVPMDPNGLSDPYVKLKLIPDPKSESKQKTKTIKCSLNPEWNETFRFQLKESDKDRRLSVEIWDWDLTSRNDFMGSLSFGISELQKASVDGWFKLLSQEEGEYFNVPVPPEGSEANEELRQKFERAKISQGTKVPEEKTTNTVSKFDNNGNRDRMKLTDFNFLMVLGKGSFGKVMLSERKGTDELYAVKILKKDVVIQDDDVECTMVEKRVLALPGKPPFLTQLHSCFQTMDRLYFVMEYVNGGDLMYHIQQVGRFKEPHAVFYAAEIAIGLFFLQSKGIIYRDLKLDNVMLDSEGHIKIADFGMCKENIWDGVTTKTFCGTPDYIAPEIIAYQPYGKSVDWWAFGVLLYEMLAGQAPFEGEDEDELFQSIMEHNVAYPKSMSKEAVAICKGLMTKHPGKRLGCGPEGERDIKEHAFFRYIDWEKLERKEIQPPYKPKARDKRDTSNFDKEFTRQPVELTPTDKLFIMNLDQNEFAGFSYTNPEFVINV

[9] = biological target: T4, Beta-adrenergic receptor kinase 1 (Bos taurus, UniProt P21146); assay: Inhibition of bovine cerebral cortex GRK2 assessed as decrease in rhodopsin phosphorylation by SDS-PAGE analysis
T4 sequence (P21146 whole entry): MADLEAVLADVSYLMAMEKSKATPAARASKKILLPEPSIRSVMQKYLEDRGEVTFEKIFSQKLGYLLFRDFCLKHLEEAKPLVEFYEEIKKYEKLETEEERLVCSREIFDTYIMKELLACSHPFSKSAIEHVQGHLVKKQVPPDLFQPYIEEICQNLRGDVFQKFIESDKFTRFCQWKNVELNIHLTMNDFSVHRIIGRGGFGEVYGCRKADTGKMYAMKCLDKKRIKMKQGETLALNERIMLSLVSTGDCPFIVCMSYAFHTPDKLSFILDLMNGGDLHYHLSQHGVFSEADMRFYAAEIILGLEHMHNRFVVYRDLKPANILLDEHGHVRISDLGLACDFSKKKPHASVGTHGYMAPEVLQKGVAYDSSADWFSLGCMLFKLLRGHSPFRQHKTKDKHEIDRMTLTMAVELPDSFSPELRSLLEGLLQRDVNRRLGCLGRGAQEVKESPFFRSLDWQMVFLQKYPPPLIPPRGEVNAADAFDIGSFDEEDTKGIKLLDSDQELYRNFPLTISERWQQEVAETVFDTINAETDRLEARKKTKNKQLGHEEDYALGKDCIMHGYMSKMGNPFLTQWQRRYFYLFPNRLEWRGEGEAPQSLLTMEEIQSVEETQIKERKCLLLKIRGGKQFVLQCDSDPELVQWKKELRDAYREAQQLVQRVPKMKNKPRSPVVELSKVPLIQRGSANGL

[10] = biological target: T4, Beta-adrenergic receptor kinase 1; assay: Inhibition of bovine cerebral cortex GRK2 assessed as decrease in phosphorylation of beta-adrenoceptor in presence of [gamma-32P]-ATP by SDS-PAGE analysis
[11] = biological target: G protein-coupled receptor kinase 5 (Bos taurus, UniProt P43249); assay: Inhibition of bovine GRK5 assessed as decrease in phosphorylation of tubulin after 5 mins by SDS-PAGE analysis
Sequence of G protein-coupled receptor kinase 5 (Bos taurus, UniProt P43249) (P43249 whole entry): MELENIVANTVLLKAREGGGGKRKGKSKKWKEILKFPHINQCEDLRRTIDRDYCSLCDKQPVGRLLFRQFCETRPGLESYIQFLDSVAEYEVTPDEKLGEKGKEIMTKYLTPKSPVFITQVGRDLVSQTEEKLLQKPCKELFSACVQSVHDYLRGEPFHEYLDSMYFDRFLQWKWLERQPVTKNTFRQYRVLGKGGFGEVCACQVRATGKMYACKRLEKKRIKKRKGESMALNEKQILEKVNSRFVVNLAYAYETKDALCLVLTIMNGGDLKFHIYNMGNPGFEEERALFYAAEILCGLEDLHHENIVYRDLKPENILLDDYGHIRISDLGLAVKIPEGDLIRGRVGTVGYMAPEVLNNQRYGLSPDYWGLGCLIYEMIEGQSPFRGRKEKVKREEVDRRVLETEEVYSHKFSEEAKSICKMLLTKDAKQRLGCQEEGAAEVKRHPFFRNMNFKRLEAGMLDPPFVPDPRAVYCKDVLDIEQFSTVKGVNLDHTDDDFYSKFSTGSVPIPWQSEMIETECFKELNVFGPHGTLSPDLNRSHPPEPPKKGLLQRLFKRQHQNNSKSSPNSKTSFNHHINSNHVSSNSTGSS

[12] = Inhibition of human PKA catalytic subunit
[13] = biological target: Beta-adrenergic receptor kinase 1 (Bos taurus, UniProt P21146, S670A); assay: Inhibition of bovine GRK2 expressed in Sf9 insect cells assessed as decrease in phosphorylation of urea-washed bovine rod outer segments in presence of Gbetagamma subunits and [gamma-32P]-ATP after 5 to 60 mins by SDS-PAGE analysis
Sequence of Beta-adrenergic receptor kinase 1 (Bos taurus, UniProt P21146, S670A) (P21146 whole entry S670A): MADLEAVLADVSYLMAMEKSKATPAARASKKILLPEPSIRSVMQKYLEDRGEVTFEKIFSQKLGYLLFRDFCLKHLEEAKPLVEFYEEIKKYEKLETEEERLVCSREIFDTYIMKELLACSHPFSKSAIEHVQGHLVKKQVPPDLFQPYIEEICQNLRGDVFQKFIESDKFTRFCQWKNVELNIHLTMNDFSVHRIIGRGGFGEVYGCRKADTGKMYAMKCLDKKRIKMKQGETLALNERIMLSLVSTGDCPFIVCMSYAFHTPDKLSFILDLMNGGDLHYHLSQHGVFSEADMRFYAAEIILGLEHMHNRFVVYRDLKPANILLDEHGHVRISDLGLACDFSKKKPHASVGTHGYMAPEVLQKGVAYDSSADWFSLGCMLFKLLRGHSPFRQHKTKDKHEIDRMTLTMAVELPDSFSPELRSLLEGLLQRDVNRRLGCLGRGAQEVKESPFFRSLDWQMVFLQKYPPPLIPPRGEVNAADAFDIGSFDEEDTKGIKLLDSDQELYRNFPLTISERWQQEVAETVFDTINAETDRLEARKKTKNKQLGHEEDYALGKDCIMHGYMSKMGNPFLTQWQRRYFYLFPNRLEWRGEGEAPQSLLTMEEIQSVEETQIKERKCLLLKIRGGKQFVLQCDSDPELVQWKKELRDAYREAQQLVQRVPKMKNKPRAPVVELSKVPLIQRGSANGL

[14] = biological target: T5, G protein-coupled receptor kinase 3 (Bos taurus, UniProt P26818); assay: Inhibition of recombinant bovine GRK3 expressed in Sf9 insect cells assessed as decrease in phosphorylation of urea-washed bovine rod outer segments in presence of Gbetagamma subunits and [gamma-32P]-ATP after 5 to 60 mins by SDS-PAGE analysis
T5 sequence (P26818 whole entry): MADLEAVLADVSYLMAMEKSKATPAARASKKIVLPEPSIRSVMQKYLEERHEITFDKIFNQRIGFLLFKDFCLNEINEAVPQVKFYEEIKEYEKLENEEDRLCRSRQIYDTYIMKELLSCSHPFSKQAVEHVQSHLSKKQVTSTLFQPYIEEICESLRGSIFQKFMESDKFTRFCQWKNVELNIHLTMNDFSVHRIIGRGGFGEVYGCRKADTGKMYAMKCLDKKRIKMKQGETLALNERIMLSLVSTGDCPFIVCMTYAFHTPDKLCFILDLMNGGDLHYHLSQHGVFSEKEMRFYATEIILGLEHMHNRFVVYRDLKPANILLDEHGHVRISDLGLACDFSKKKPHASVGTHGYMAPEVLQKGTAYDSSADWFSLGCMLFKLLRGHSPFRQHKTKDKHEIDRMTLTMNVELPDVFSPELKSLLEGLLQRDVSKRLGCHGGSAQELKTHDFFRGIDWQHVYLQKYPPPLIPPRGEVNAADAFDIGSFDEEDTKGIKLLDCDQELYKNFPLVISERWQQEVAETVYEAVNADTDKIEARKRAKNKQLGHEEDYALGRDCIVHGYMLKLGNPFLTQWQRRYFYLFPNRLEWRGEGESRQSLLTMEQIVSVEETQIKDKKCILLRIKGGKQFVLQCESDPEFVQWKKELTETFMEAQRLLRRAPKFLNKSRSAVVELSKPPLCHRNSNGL

[15] = biological target: G protein-coupled receptor kinase 5 (Homo sapiens, UniProt P34947); assay: Inhibition of recombinant human GRK5 expressed in Sf9 insect cells assessed as decrease in phosphorylation of urea-washed bovine rod outer segments in presence of Gbetagamma subunits and [gamma-32P]-ATP after 5 to 60 mins by SDS-PAGE analysis
Sequence of G protein-coupled receptor kinase 5 (Homo sapiens, UniProt P34947) (P34947 whole entry): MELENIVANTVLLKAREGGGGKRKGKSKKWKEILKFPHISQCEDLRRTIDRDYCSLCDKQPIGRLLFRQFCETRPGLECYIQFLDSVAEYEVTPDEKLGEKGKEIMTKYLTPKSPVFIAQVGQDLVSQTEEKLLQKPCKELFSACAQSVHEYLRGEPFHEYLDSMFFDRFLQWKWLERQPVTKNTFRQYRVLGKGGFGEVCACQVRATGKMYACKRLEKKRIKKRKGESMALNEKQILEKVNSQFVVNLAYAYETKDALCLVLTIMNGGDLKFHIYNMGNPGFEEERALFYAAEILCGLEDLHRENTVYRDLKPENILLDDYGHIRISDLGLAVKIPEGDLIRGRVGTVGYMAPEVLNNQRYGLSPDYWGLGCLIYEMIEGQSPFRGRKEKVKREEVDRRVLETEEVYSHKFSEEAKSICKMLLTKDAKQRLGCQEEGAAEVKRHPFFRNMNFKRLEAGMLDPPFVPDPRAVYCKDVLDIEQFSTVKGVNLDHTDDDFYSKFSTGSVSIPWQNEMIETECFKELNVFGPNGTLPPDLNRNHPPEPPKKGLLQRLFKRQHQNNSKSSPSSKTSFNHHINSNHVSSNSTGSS

SMILES: O=C1NCc2ccc(OC[C@@H]3CNCC[C@H]3c3ccc(F)cc3)cc21
IC50 [1]: 6.3 µM

SMILES: CC1=C(C(=O)Nc2cc(Cl)c3[nH]ncc3c2)C(c2ccc(C(F)(F)F)cc2)CC(=O)N1 (centres undefined) [GSK-466317A]
IC50 [2]: 12.6 µM | IC50 (Rhodopsin kinase GRK1 [3]): 1000 µM

SMILES: Fc1ccc([C@@H]2CCNC[C@H]2COc2ccc3c(c2)OCO3)cc1 [PAROXETINE HYDROCHLORIDE]
IC50 [2]: > 45 µM | IC50 [4]: 220 µM

SMILES: CC1=C(C(=O)Nc2ccc3[nH]ncc3c2)C(c2ccc(F)cc2)N=C(c2ccc(C(F)(F)F)cc2)N1 (centres undefined)
IC50 [2]: 200 µM | IC50 (Rhodopsin kinase GRK1 [3]): > 1000 µM | IC50 [11]: 631 µM

SMILES: Cn1c(CNc2cccc(C(=O)NCc3ccccc3C(F)(F)F)c2)nnc1-c1ccncc1
IC50 [12]: > 2 µM

SMILES: CC[C@H](C)[C@H](NC(=O)[C@H](Cc1ccccc1)NC(=O)[C@H](Cc1ccc(O)cc1)NC(=O)[C@H](CC(N)=O)NC(=O)[C@@H](NC(=O)[C@@H](NC(=O)[C@@H](NC(=O)[C@H](CCC(N)=O)NC(=O)[C@H](CC(C)C)NC(=O)[C@H](CCCNC(=N)N)NC(=O)[C@H](CCC(=O)O)NC(=O)[C@H](Cc1ccccc1)NC(=O)[C@H](CCCCN)NC(=O)[C@H](C)N)[C@@H](C)O)C(C)C)[C@@H](C)O)C(=O)N[C@H](C(=O)N[C@@H](CO)C(=O)N[C@@H](CCCCN)C(=O)O)[C@@H](C)O (H-AKFERLQTVTNYFITSK-OH)
IC50 [13]: 32.2 µM | IC50 [14]: 55.5 µM | IC50 [15]: 9.4 µM

The next lines start with the values.

IC50 (Rhodopsin kinase GRK1 [5]): 4.1 µM | Kd [6]: 0.0016 µM | Kd [7]: 0.0064 µM | Kd [8]: 0.0018 µM
SMILES: O=C(N[C@@H]1CNCCC[C@H]1OC(=O)c1cc(O)c(C(=O)c2c(O)cccc2C(=O)O)c(O)c1)c1ccc(O)cc1 [BALANOL]

IC50 [9]: 3600 µM
SMILES: O=P(O)(O)O[C@@H]1[C@H](O)[C@H](O)[C@@H](O)[C@H](O)[C@H]1O

IC50 [9]: 13.5 µM
SMILES: O=S(=O)(O)O[C@H]1[C@H](OS(=O)(=O)O)[C@@H](OS(=O)(=O)O)[C@H](OS(=O)(=O)O)[C@@H](OS(=O)(=O)O)[C@H]1OS(=O)(=O)O

IC50 [10]: 1600 µM
SMILES: CC(C)C[C@H](NC(=O)[C@H](CCCNC(=N)N)NC(=O)[C@H](CCC(=O)O)NC(=O)[C@H](Cc1ccccc1)NC(=O)[C@H](CCCCN)NC(=O)[C@H](C)N)C(=O)N[C@@H](CCC(N)=O)C(=O)N[C@H](C(=O)N[C@H](C(=O)N[C@H](C(=O)N[C@@H](CC(N)=O)C(=O)O)[C@@H](C)O)C(C)C)[C@@H](C)O (H-AKFERLQTVTN-OH)
